Laboratory results reported in patent US20150174144A1, “TETRACYCLINE COMPOUNDS FOR TREATING NEURODEGENERATIVE DISORDERS” (PARATEK PHARMACEUTICALS, INC., priority 2012, published 2015).

Experiments:
Metabolism = assay type: in vitro ADME; conditions: pre-clinical ADME studies
[1] = Alkylperoxy radical scavenging assay (AIPH, AE-Trolox oxidation)
Procedure: In a separate assay, alkylperoxy radicals were generated in vitro using the radical generator AIPH (2,2′-azobis-[2-(2-imidazolyn-2-yl)-propane) and the ability of tetracyclines to scavenge these radicals was determined. […] Also, the ability of Compound 1 and minocycline to specifically scavenge peroxynitrite-carbonate radicals was determined.
In this study, alkylperoxy radicals were generated in vitro using the radical generator AIPH (2,2′-azobis-[2-(2-imidazolyn-2-yl)-propane) and the ability of tetracyclines, such as Compound 1, to scavenge these radicals was determined.
Trolox is a known scavenger of peroxyradicals. Structurally similar to a-tocopherol, Trolox reacts with peroxyradicals via a known mechanism with linear kinetics under excess oxygen conditions. In the presence of a competing antioxidant compound, the rate of Trolox oxidation will change based on the relative rate of oxidation and concentration of the competing antioxidant compound (Huang, et al., J. Agric. Food Chem. 2005, 25, 1841-1856). By measuring the effect of antioxidant concentration on the rate of degradation of Trolox, the relative antioxidant capacity of a compound can be determined. This principle is the basis of the widely used antioxidant capacity assay, ORAC (Huang, et al., J. Agric. Food Chem. 2002, 50, 1815-1821). Unlike ORAC which uses a fluorescent dye indicator, the assay described here directly measures the oxidation of the Trolox derivative, 2-aminoethyl-Trolox (AE-Trolox). This method eliminates interference of the fluorescent dye reaction by tetracycline compounds.
To the first column of a 96-well PCR plate (0.2 mL volume) was added 160 μL of TCWS. One well of the first column would equal one IC50 determination. […] To the remaining wells in columns 2-11 was added 80 μL of AET-WS. Using a multichannel pipettor, column 1 was serially diluted in 2-fold dilutions by removing 80 μL from column 1 and transferring with mixing to column 2. Column 2 was then diluted to column 3 and so on until column 11 where 80 μL of the diluted mixture was removed and discarded. Four wells of row 12 were designated as the 0 test compound/0 AIPH control to which 80 μL of AET-WS was added. One well of row 12 per test compound was designated as the 0 test compound control to which 80 μL of the AET-WS was added.
The plate was covered and incubated for 5 minutes at 37° C. upon which the reaction was initiated by addition of 20 μL of AIPH to columns 1-11 using a multichannel pipettor with mixing. The reaction was initiated similarly to the 0 test compound wells of column 12. To the 0 test compound/0 AIPH control wells was added 20 μL of PB buffer. The plate was incubated at 37° C. for 8 minutes (the reaction is linear for 10 minutes) and quenched by addition of 50 μL of AA to all wells with mixing. The plate was placed on ice for 5 minutes. Quenched assay mixtures were stable at room temperature for at least 24 hours.
Each reaction mixture was analyzed for AE-Trolox by 2D-LCMS on a Shimadzu 2010 equipped with a loading column (Shim-pack MAYI-ODS, 4.6×10 mm) and a gradient column Phenomenex Luna C18(2) column, 3 um, 4.6×50 mm. Using an automated 2-position swithching valve, samples were loaded onto the loading column by Pump C and washed for 1 minute with loading buffer. At 1 minute, the valve was switched to elution position (Position B, reversed flow through loading column) and the samples were eluted through the gradient column. The loading buffer (Buffer C) was 10% acetonitrile in water with 0.2% formic acid and the gradient buffers were water+0.2% formic acid (A buffer) and acetonitrile+0.2% formic acid (B buffer). Typical injection volumes were 30 μL.
From the TIC integration of AE-Trolox and AE-Trolox-d4, a ratio was calculated:
Ratio=AUCAE-Trolox/AUCAE-Trolox-d4
Percent inhibition of AE-Trolox oxidation (measured as disappearance of AE-Trolox) was then determined by:
% Inhibition=[1−((Ratio0−Ratiox)/(Ratioo−Ratiof))]*100

[2] = tested on: Fmr1 KO mice and wild-type littermates; assay: Open Field test, mouse model of Fragile X Syndrome; assay type: in vivo; conditions: 10 mg/kg/d i.p. osmotic pump, 1 week
Procedure: (§1) The purpose of this study was to test Compound 1 for treating Fragile X Syndrome. This study utilized Fmr1 KO mice, an animal model of Fragile X Syndrome.
(§2) The Fmr1 KO mice (C57BL/6 background) were kindly provided the FRAXA Foundation. Mice were housed in groups of the same genotype in a temperature and humidity controlled room with a 12-h light-dark cycle (lights on 7 am to 7 pm). Testing was conducted during the light phase. Food and water were available ad libitum. Testing was conducted on Fmr1 KO mice and their wild-type littermates. They were housed in commercial plastic cages purchased in the UK. Experiments were conducted in line with the requirements of the UK Animals (Scientific Procedures) Act, 1986.
(§3) The dosing protocol used is shown below. Mice were dosed at 6-7 weeks by intraperitoneal (i.p.) infusion by osmotic pump (0.5 μl/hour) for 1 week. The solution of 0.9% saline was used as a vehicle, and 10 mice were dosed per each group.

Fmr1 KO2 mice = assay: Contextual fear conditioning, mouse model of Fragile X Syndrome; assay type: in vivo; conditions: acute stress conditions
Procedure: as §1, §2, §3
Freezing as a species-specific response to fear was measured.

GLP phototoxicity assay = assay: GLP phototoxicity assay
Procedure: The compound was also shown to be negative in a GLP phototoxicity assay. […] Both 14-day acute toxicity and 28-day toxicology study were performed in rats with Compound 1 along with minocycline for comparison. Animals were administered daily oral doses from 15 to 150 mg/kg for up to 4 weeks followed by a recovery period.

CCc1cc(N(C)C)c2c(c1O)C(=O)C1=C(O)[C@]3(O)C(=O)C(C(N)=O)=C(O)[C@@H](N(C)C)[C@@H]3C[C@@H]1C2 [Compound 1]
Effects in metabolism (Metabolism): no significant effects | IC50 ([1]; 5 mM AIPH, 37° C., 8 minutes, read-out: IC50, inhibition of AE-Trolox oxidation (alkylperoxy radical scavenging)): 12.6 µM | Percent Trolox Activity ([1]; relative to Trolox): 71% | Trolox Equivalents ([1]; relative to Trolox): 0.71 | Open Field Test - Trial 2, Mean time ([2]; Fmr1 KO mice): 97.100 min | Open Field Test - Trial 3, Mean time ([2]; Fmr1 KO mice): 72.600 min | Open Field Test - Trial 2, Mean time ([2]; WT mice): 83.900 min | Open Field Test - Trial 3, Mean time ([2]; WT mice): 68.300 min | Contextual fear conditioning, learning deficit (freezing) (Fmr1 KO2 mice): failed to fully rescue the learning deficit | GLP phototoxicity assay result (GLP phototoxicity assay): negative
